Source: paper PMC11395096, “Study of Pentacyclic Triterpenes from Lyophilised Aguaje: Anti-Inflammatory and Antioxidant Properties” (International Journal of Molecular Sciences, 2024)
Structures can show the parent of a compound that is named as a salt.

What was measured:
Nrf2 [1] = assay: Nrf2 activation assay, IC-21 cells; assay type: cell-based; settings: Mus musculus, 72 h, IC-21, 72 h, read-out: Activation of Nrf2 production EC50
From the text: (§1) The IC-21 (Mus musculus macrophage cells, TIB-186) and RAW 264.7 (Mus musculus macrophage cells, TIB-71) cell lines used in this study were obtained from the American Type Culture Collection (ATCC, Manassas, VA, USA). The selection of IC-21 and RAW 264.7 cell lines for studies on inflammation and antioxidant activity is based on two main reasons: the cell type and their origin. Firstly, both IC-21 and RAW 264.7 cell lines are macrophages, which play a crucial role in the immune system, being essential for the inflammatory response and regulation of oxidative stress. These cells have the capacity to produce pro-inflammatory cytokines, express transcription factors such as NF-κB, and generate NO, making them ideal models to understand inflammatory mechanisms. Moreover, macrophages are involved in the activation of Nrf2, a transcription factor critical for the antioxidant response, allowing these cell lines to enable a comprehensive assessment of antioxidant activity within an inflammatory context.
(§2) Stock solutions of the samples (extracts and compounds) were prepared at a concentration of 1 mM using dimethyl sulfoxide (DMSO ≥ 99.9% Sigma-Aldrich, CAS No. 67-68-5, St. Louis, MO, USA) as the solvent. Dilutions from these stock solutions were then made to achieve concentrations between 100 and 0.20 μg mL^−1 or μM in the culture medium, which contained 0.5% DMSO. A control group consisting only of the culture medium with 0.5% DMSO was also included to determine its potential cytotoxicity.
(§3) The 50% cytotoxic concentration (CC50), 50% inhibitory concentration (IC50), and half-maximal effective concentration (EC50) values were calculated using the sigmoidal dose–response function. All experiments were conducted in triplicate, and the data obtained were expressed as the mean and standard deviation. A two-way analysis of variance (ANOVA) combined with Dunnett’s multiple comparisons test (p < 0.001) was performed for the cytotoxicity, NF-κB inhibition, NO inhibition and Nrf2 activation assays, while a one-way ordinary ANOVA combined with Dunnett’s multiple comparisons test (p < 0.001) was conducted for the SOD assay. All statistical analyses were performed using GraphPad Prism version 10.0.0 (La Jolla, CA, USA, www.graphpad.com, accessed on 28 August 2024).
(§4) To determine the antioxidant response of the samples (at the same concentration as in the viability assay), the Nrf2 activation assay was used following the protocol carried out by Apaza Ticona et al.. Cells were cultured in 96-well plates (1 × 10^4 cells per well). […] Absorbance was measured at 540 nm using a microplate reader.

Nrf2 [2] = assay: Nrf2 activation assay, value not assigned to one cell line; assay type: cell-based, Mus musculus
Procedure: as §4

Nrf2 [3] = assay: Nrf2 activation assay, RAW 264.7 cells; assay type: cell-based, Mus musculus; settings: RAW 264.7, 72 h, read-out: Activation of Nrf2 production EC50
From the text: as §1, §2, §3, §4

NF-κB [4] = assay: NF-κB inhibition assay, value not assigned to one cell line; assay type: cell-based; settings: Mus musculus
Procedure: (§5) To assess the anti-inflammatory potential of the samples at the same concentrations used in the cell viability assay, an NF-κB inhibition assay was used following the approach established by Apaza Ticona et al.. Cells were seeded in 96-well plates at a density of 3 × 10^3 cells per well. […] Absorbance was quantified at 450 nm using a microplate reader.

[5] = target: Superoxide Dismutase (SOD); assay: SOD activation assay (kit); assay type: biochemical; settings: 72 h; for EC50: compounds series
Procedure: as §3
To determine the antioxidant response of the samples (at the same concentration as in the viability assay), the SOD activation assay kit (Sigma-Aldrich, CAS No. MAK528, St. Louis, MO, USA) was used, implementing the protocol adapted from Vincent et al.. […] Absorbance was measured at 450 nm using a microplate reader.

NO production [6] = assay: NO inhibition assay, LPS-stimulated RAW 264.7 cells; assay type: cell-based, Mus musculus; settings: RAW 264.7, + LPS 100 μg mL^−1, 72 h
From the text: as §1, §2, §3
(§6) To determine the anti-inflammatory activity of the samples (at the same concentration as in the viability assay), the […] was used, implementing the protocol adapted from Guo et al.. Cells were cultured in 96-well plates (1 × 10^4 cells per well). […] Absorbance was measured at 540 nm using a microplate reader.

NO production [7] = assay: NO inhibition assay, LPS-stimulated IC-21 cells; assay type: cell-based, Mus musculus; settings: IC-21, + LPS 100 μg mL^−1, 72 h
From the text: as §1, §2, §3, §6

NO production [8] = assay: NO inhibition assay, value not assigned to one cell line; assay type: cell-based; settings: Mus musculus
Procedure: as §6

NF-κB [9] = assay: NF-κB inhibition assay, LPS-stimulated RAW 264.7 cells; assay type: cell-based, Mus musculus; settings: RAW 264.7, + LPS 100 μg mL^−1, 72 h; for IC50: compounds series, read-out: Inhibition of NF-κB production IC50
From the text: as §1, §2, §3, §5

NF-κB [10] = assay: NF-κB inhibition assay, LPS-stimulated IC-21 cells; assay type: cell-based, Mus musculus; settings: IC-21, + LPS 100 μg mL^−1, 72 h; for IC50: compounds series, read-out: Inhibition of NF-κB production IC50
From the text: as §1, §2, §3, §5

IC-21 cell line = assay: NR (neutral red) viability assay, IC-21 cells; assay type: cell-based, Mus musculus; settings: IC-21, 72 h, compounds series
From the text: as §1
(§7) Cultivated in a Roswell Park Memorial Institute (RPMI) 1640 medium (RPMI 1640 Sigma-Aldrich, CAS No. R7755, St. Louis, MO, USA) supplemented with 2 mM L-glutamine (≥99% Sigma-Aldrich, CAS No. 56-85-9, St. Louis, MO, USA), 10% foetal bovine serum (FBS Sigma-Aldrich, CAS No. TMS-016, St. Louis, MO, USA), and 10,000 units of penicillin and 10 mg streptomycin mL^−1 (Sigma-Aldrich, CAS No. P4333, St. Louis, MO, USA) in culture flasks, the cells were maintained in an incubator under normoxic conditions (20–21% O2) and a humidified atmosphere (5% CO2, at 37 °C).
as §2, §3
(§8) Cell viability was evaluated using a colorimetric assay in 96-well plates, employing 3-amino-7-dimethylamino-2-methylphenazine hydrochloride salt reagent (NR, Sigma-Aldrich, CAS No. 553-24-2, St. Louis, MO, USA). ACTD (≥95% Sigma-Aldrich, CAS No. 50-76-0, St. Louis, MO, USA) was used as a positive control, with a CC50 value of 0.01 μg mL^−1 for the extracts, or 0.008 μM for the compounds. The IC-21 and RAW 264.7 cell lines were cultured in 96-well plates at 37 °C with 5% CO2 until >90% confluency was achieved (1 × 10^4 cells per well). Subsequently, the cultures were treated with sample dilutions (100–0.20 μg mL^−1 or μM) for 72 h at 37 °C with 5% CO2 in phenol red-free RPMI. The supernatant was then discarded, and the cells were washed with phosphate-buffered saline (PBS) before being incubated with […] NR (50 μg mL^−1; 173 μM) for 3 h at 37 °C with 5% CO2. NR labelling was performed after DMSO treatment. […]

[11] = NR (neutral red) viability assay, IC-21 cells; assay type: cell-based, Mus musculus; settings: mouse, IC-21 macrophage cells, IC-21, 72 h, compounds series
From the text: as §1, §7, §2, §3, §8

[12] = NR (neutral red) viability assay, RAW 264.7 cells; assay type: cell-based, Mus musculus; settings: mouse, RAW 264.7 macrophage cells, RAW 264.7, 72 h, compounds series
From the text: as §1, §7, §2, §3, §8

RAW 264.7 cell line = assay: NR (neutral red) viability assay, RAW 264.7 cells; assay type: cell-based, Mus musculus; settings: RAW 264.7, 72 h, compounds series
From the text: as §1, §7, §2, §3, §8

[13] = Mus musculus, RAW264.7, across IC-21 and RAW 264.7 / cell line not stated, compounds series
[14] = Mus musculus, RAW264.7, 72 h, compounds series
[15] = Mus musculus, RAW264.7, 72 h, extracts series
[16] = Mus musculus, 72 h, compounds series
[17] = RAW264.7, across IC-21 and RAW 264.7 / cell line not given, compounds series

Compound: COC(=O)[C@]12CCC(C)(C)C[C@H]1[C@H]1C(=O)C=C3[C@@]4(C)C=C(C#N)C(=O)C(C)(C)[C@@H]4CC[C@@]3(C)[C@]1(C)CC2 [CDDO-Me, bardoxolone methyl, reference compound]
- EC50 (Nrf2 [1]; compounds series): 0.09 nM
- EC50 (Nrf2 [1]; extracts series): 0.05 ng/mL
- EC50 (Nrf2 [2]; [13]): 0.09 to 0.13 nM
- EC50 (Nrf2 [2]; Mus musculus, cell line not stated, extracts series): 0.07 ng/mL
- EC50 (Nrf2 [2]; across IC-21 and RAW 264.7 / cell line not given, compounds series): 0.11 nM
- EC50 (Nrf2 [3]; [14]): 0.00013 µM
- EC50 (Nrf2 [3]; [15]): 0.08 ng/mL

Compound: CC1=C(O)C(=O)C=C2C1=CC=C1[C@@]2(C)CC[C@@]2(C)[C@@H]3C[C@](C)(C(=O)O)CC[C@]3(C)CC[C@]12C [CEL, celastrol]
- IC50 (NF-κB [4]; RAW264.7, read-out: NF-κB inhibition IC50): 7.41 µM
- IC50 (NF-κB [4]; read-out: NF-κB inhibition IC50): 3.34 µg/mL

Compound: O=C(O)c1cc(O)c(O)c(O)c1 [GA, gallic acid, reference compound]
- EC50 [5]: 12.1 µM
- SOD activation EC50 ([5]; extracts series): 2.06 µg/mL

Compound: [H]/N=C(/NC)NCCC[C@H](N)C(=O)O [LNMMA, N^G-methyl-L-arginine acetate salt]
- IC50 (NO production [6]; [14]): 6.83 µM
- IC50 (NO production [6]; [15]): 1.64 µg/mL
- IC50 (NO production [7]; [16]): 6.43 µM
- IC50 (NO production [7]; Mus musculus, 72 h, extracts series): 1.57 µg/mL
- IC50 (NO production [8]; [17]): 6.63 µM
- IC50 (NO production [8]; cell line not stated, extracts series): 1.61 µg/mL

Compound: C[C@H]1[C@H](C)CC[C@]2(C(=O)O)CC[C@]3(C)C(=CC(=O)[C@@H]4[C@@]5(C)CCC(=O)C(C)(C)[C@@H]5CC[C@]43C)[C@H]12 [compound 1, 3,11-dioxours-12-en-28-oic acid]
- IC50 (NO production [6]; [14]): 6.59 µM
- EC50 [5]: 1.87 µM
- IC50 (NF-κB [9]; Mus musculus, RAW264.7, 72 h): 8.11 µM
- IC50 (NF-κB [10]; Mus musculus, 72 h): 7.39 µM
- EC50 (Nrf2 [1]; compounds series): 243 nM
- IC50 (NF-κB [4]; RAW264.7, across IC-21 and RAW 264.7 / cell line not given, compounds series, read-out: NF-κB inhibition IC50): 7.39 to 8.11 µM
- CC50 (IC-21 cell line): 67.6 µM
- CC50 at 72 h [11]: 67.6 µM
- EC50 (Nrf2 [2]; [13]): 243 to 548 nM
- CC50 at 72 h [12]: 75.4 µM
- CC50 (RAW 264.7 cell line): 75.4 µM
- EC50 (Nrf2 [3]; [14]): 0.548 µM
- EC50 (Nrf2 [3]; compounds series): 0.548 µM
- IC50 (NO production [7]; [16]): 4.75 µM
- IC50 (NO production [8]; [17]): 4.75 to 6.59 µM

Compound: CC(=O)O[C@H]1CC[C@]2(C)[C@H]3C(=O)C=C4[C@@H]5[C@@H](C)[C@H](C)CC[C@]5(C(=O)O)CC[C@@]4(C)[C@]3(C)CC[C@H]2C1(C)C [compound 2, (3β)-3-acetyloxy-11-oxours-12-en-28-oic acid]
- IC50 (NO production [6]; [14]): 15.5 µM
- EC50 [5]: 7.43 µM
- IC50 (NF-κB [9]; Mus musculus, RAW264.7, 72 h): 20 µM
- IC50 (NF-κB [10]; Mus musculus, 72 h): 13.4 µM
- EC50 (Nrf2 [1]; compounds series): 524 nM
- CC50 at 72 h [11]: 78.5 µM
- CC50 at 72 h [12]: 84.9 µM
- CC50 (RAW 264.7 cell line): 84.9 µM
- EC50 (Nrf2 [3]; [14]): 0.772 µM
- IC50 (NO production [7]; [16]): 11.3 µM

Compound: C[C@H]1[C@H](C)CC[C@]2(C(=O)O)CC[C@]3(C)C(=CC(=O)[C@@H]4[C@@]5(C)CC[C@H](O)C(C)(C)[C@@H]5CC[C@]43C)[C@H]12 [compound 3, (3β)-3-hydroxy-11-oxours-12-en-28-oic acid]
- IC50 (NO production [6]; [14]): 24.8 µM
- EC50 [5]: 13.2 µM
- IC50 (NF-κB [9]; Mus musculus, RAW264.7, 72 h): 27.1 µM
- IC50 (NF-κB [10]; Mus musculus, 72 h): 21 µM
- EC50 (Nrf2 [1]; compounds series): 1030 nM
- CC50 (IC-21 cell line): 88.5 µM
- CC50 at 72 h [11]: 88.5 µM
- CC50 at 72 h [12]: 92.4 µM
- CC50 (RAW 264.7 cell line): 92.4 µM
- EC50 (Nrf2 [3]; [14]): 1.14 µM
- IC50 (NO production [7]; [16]): 16.6 µM

Compound: lipopolysaccharide [LPS, reference compound]
- IC50 (NO production [6]; compounds series): 98.3 µM
- Inhibition of NO production IC50 (NO production [6]; extracts series): 97.2 µg/mL
- IC50 (NF-κB [9]): 99.2 µM
- Inhibition of NF-κB production IC50 (NF-κB [9]; extracts series): 98.7 µg/mL
- IC50 (NF-κB [10]): 95.8 µM
- Inhibition of NF-κB production IC50 (NF-κB [10]; extracts series): 97.5 µg/mL
- IC50 (NO production [7]; compounds series): 97 µM
- Inhibition of NO production IC50 (NO production [7]; extracts series): 95.2 µg/mL
